Where a SMILES comes first, the peptide text is derived from it. Where no end group is shown, it is not given here. [ ]: non-standard residue; d: D form. Gly(octyl) = CCCCCCCC[C@H](N)C(=O)O
T1: GLP-1 receptor, endogenous in RINm5f cells (rat (RIN-m5F are called rat pancreas …, UniProt P32301 22-463))
T1 sequence (looked up): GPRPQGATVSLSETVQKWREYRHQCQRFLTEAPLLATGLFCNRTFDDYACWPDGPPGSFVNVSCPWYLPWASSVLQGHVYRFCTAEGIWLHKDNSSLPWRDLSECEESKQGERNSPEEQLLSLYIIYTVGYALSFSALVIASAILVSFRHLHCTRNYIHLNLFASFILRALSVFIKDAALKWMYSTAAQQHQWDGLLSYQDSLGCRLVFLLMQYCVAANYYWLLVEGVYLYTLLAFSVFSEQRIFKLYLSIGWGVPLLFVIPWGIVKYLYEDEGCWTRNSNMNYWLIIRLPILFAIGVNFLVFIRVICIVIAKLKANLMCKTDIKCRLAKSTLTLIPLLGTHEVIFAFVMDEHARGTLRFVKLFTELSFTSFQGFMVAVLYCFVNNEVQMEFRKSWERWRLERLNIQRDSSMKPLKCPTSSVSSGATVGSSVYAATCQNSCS

B1: Cmpd 5099 (peptide)
peptide: HGEGTFTSDVTQQLEEEAVRLFIEWLKQGGPSSGAPPPS-NH2
B2: Cmpd 5052 (peptide)
peptide: HGEGTFTSDLVKILEAEAVRKFIEFLKN-NH2
B3: Cmpd 5183 (peptide)
peptide: HGEGTYTNDVSSYLEGQAARLFIEWLQGGPSSGAPPPS-NH2
modifications: also: table prints an unexplained underscore after L26
B4: Cmpd 5268 (peptide)
peptide: HGEGTFTSDLSKQAEEEAVRLFIEWLKNGKPKK[Gly(octyl)]RYS-OH
modifications: N-terminus assumed
SMILES: CCCCCCCC[C@H](NC(=O)[C@H](CCCCN)NC(=O)[C@H](CCCCN)NC(=O)[C@@H]1CCCN1C(=O)[C@H](CCCCN)NC(=O)CNC(=O)[C@H](CC(N)=O)NC(=O)[C@H](CCCCN)NC(=O)[C@H](CC(C)C)NC(=O)[C@H](Cc1c[nH]c2ccccc12)NC(=O)[C@H](CCC(=O)O)NC(=O)[C@@H](NC(=O)[C@H](Cc1ccccc1)NC(=O)[C@H](CC(C)C)NC(=O)[C@H](CCCNC(=N)N)NC(=O)[C@@H](NC(=O)[C@H](C)NC(=O)[C@H](CCC(=O)O)NC(=O)[C@H](CCC(=O)O)NC(=O)[C@H](CCC(=O)O)NC(=O)[C@H](C)NC(=O)[C@H](CCC(N)=O)NC(=O)[C@H](CCCCN)NC(=O)[C@H](CO)NC(=O)[C@H](CC(C)C)NC(=O)[C@H](CC(=O)O)NC(=O)[C@H](CO)NC(=O)[C@@H](NC(=O)[C@H](Cc1ccccc1)NC(=O)[C@@H](NC(=O)CNC(=O)[C@H](CCC(=O)O)NC(=O)CNC(=O)[C@@H](N)Cc1c[nH]cn1)[C@@H](C)O)[C@@H](C)O)C(C)C)[C@@H](C)CC)C(=O)N[C@@H](CCCNC(=N)N)C(=O)N[C@@H](Cc1ccc(O)cc1)C(=O)N[C@@H](CO)C(=O)O
notes: tested as C-terminal acid (-OH)

Columns and labels:
Plasma stability = format: in vitro ADME; conditions: 20 μg/mL in plasma, 37° C., 0-5 hours
Experimental: To assess stability, the compound of interest is spiked into plasma at a concentration of 20 μg/mL. It is incubated at 37° C. for 0, 1, 2 3, 4, 5 hours in triplicate. At each time point, MeOH is added to a 96 well microtiter plate and then sample is added in a ratio of 1 part sample to 4 parts MeOH to quench the digestion reaction. Samples are mixed with multi-channel pipette or liquid handler. The plate is then centrifuged for 10 minutes and placed in an autosampler kept at 10° C. Samples are then injected into a mass spectrometer (API 3000, Applied Biosystems) equipped with an autosampler (Leap HTC Pal) and HPLC pumps (Shimadzu LC-10ADVP).

NH/Swiss mice = assay: Glucose lowering assay; format: in vivo, mouse; conditions: IP, 2 nmol/kg, change in blood glucose relative to vehicle
Experimental: Female NH/Swiss mice (˜8-20 weeks of age), (Harlan, Indianapolis, Ind., USA), housed 3 mice per cage, are allowed ad libitum access to food and water until the start of the experiment. At two hours prior to treatment, access to food is restricted.
At the time of treatment, the tip of the tail is pricked with a needle to obtain 1 μl blood as a “pre-treatment” control blood sample. Immediately thereafter, each mouse is injected intraperitoneally (IP) with a test sample (1 nmol/kg or 2 nmol/kg) or 200 μl vehicle (10% DMSO saline). Additional blood samples are collected at 30, 60, 120, 180, and 240 minutes after injection.
Blood glucose is measured with a glucose oxidase biosensor (OneTouch® Ultra® (LifeScan, Inc., a Johnson & Johnson Company, Milpitas, Calif.)). At each time point, the effect of the test sample is expressed as the percent change in blood glucose relative to mice injected with vehicle only. Test samples and vehicle controls are also compared to their respective “pre-treatment” controls.
Significant test sample effects are identified by ANOVA (p<0.05). Where a significant difference existed, test means are compared to the control mean with Dunnett's post test using GraphPad Prism version 4.00 for Windows, GraphPad Software, San Diego Calif. USA, www.graphpad.com).

[1] = tested on: GLP/GIP/CT cyclase, RIN-m5F cells; assay: GLP/GIP/CT Cyclase (RIN) assay; format: cell-based, rat; conditions: cAMP, values without **
Experimental: GLP/GIP/CT Cyclase (RIN) Assay
Five μl of serially diluted peptides are transferred to the 384-well assay plate. Rat pancreas insulinoma cells (RIN-m5F) are detached from a tissue culture flask with Versene and washed once in buffer. Then RIN-m5F cells are resusupended in buffer at 2.5×10^6 cells/ml. Then 10 μl cells (2.5×10^4 cells) are added to all wells of the assay plate and cells are stimulated at room temperature in the dark for 30 minutes. The reaction is terminated with 10 μl of lysis buffer and incubated at room temperature for 4 hrs in the dark. cAMP content is measured using Perkin Elmer AlphaScreen™ cAMP assay kit and results are read on a Perkin Elmer Fusion fluorometer. The assay is completed in 384-well plates at 25 microliter volumes.

[2] = molecular target: T1, GLP-1 receptor, endogenous in RINm5f …; assay: cell-based or functional assay
[3] = molecular target: T1, GLP-1 receptor, endogenous in RINm5f …; assay: 125I-GLP-1 displacement, RINm5f membranes

Molecule	plasma stability as compared to native GLP-1 (Plasma stability)	plasma stability as compared to native GLP-1 (Plasma stability; second, narrower list of b152)	GLU LOWERING AUC240 @2 nmol/kg (NH/Swiss mice) [%]	EC50 [1] [nM]	cAMP, CYCLASE GLP/GIP/CT (RIN) EC50 [2] [nM]	IC50 [3] [nM]
CC[C@H](C)[C@H](NC(=O)[C@H](Cc1ccccc1)NC(=O)[C@H](CC(C)C)NC(=O)[C@H](CCCNC(=N)N)NC(=O)[C@H](C)NC(=O)[C@H](C)NC(=O)[C@H](CCC(=O)O)NC(=O)[C@H](CCC(=O)O)NC(=O)[C@H](CCC(=O)O)NC(=O)[C@H](CC(C)C)NC(=O)[C@H](Cc1ccc(O)cc1)NC(=O)[C@H](CO)NC(=O)[C@H](CO)NC(=O)[C@@H](NC(=O)[C@H](CC(=O)O)NC(=O)[C@H](CC(N)=O)NC(=O)[C@@H](NC(=O)[C@H](Cc1ccc(O)cc1)NC(=O)[C@@H](NC(=O)CNC(=O)[C@H](CCC(=O)O)NC(=O)CNC(=O)[C@@H](N)Cc1c[nH]cn1)[C@@H](C)O)[C@@H](C)O)C(C)C)C(=O)N[C@@H](CCC(=O)O)C(=O)N[C@@H](Cc1c[nH]c2ccccc12)C(=O)N[C@@H](CC(C)C)C(=O)N[C@@H](CCCCN)C(=O)N[C@@H](CCC(N)=O)C(=O)NCC(=O)NCC(=O)N1CCC[C@H]1C(=O)N[C@@H](CO)C(=O)N[C@@H](CO)C(=O)NCC(=O)N[C@@H](C)C(=O)N1CCC[C@H]1C(=O)N1CCC[C@H]1C(=O)N1CCC[C@H]1C(=O)N[C@@H](CO)C(N)=O [Cmpd 5182]	increased plasma stability	increased plasma stability	−16	–	–	–
CCCCCCCC[C@H](NC(=O)[C@H](CCCCN)NC(=O)[C@H](CCCCN)NC(=O)[C@@H]1CCCN1C(=O)[C@H](CCCCN)NC(=O)CNC(=O)[C@H](CC(N)=O)NC(=O)[C@H](CCCCN)NC(=O)[C@H](CC(C)C)NC(=O)[C@H](Cc1c[nH]c2ccccc12)NC(=O)[C@H](CCC(=O)O)NC(=O)[C@@H](NC(=O)[C@H](Cc1ccccc1)NC(=O)[C@H](CC(C)C)NC(=O)[C@H](CCCNC(=N)N)NC(=O)[C@@H](NC(=O)[C@H](C)NC(=O)[C@H](CCC(=O)O)NC(=O)[C@H](CCC(=O)O)NC(=O)[C@H](CCC(=O)O)NC(=O)[C@H](C)NC(=O)[C@H](CCC(N)=O)NC(=O)[C@H](CCCCN)NC(=O)[C@H](CO)NC(=O)[C@H](CC(C)C)NC(=O)[C@H](CC(=O)O)NC(=O)[C@H](CO)NC(=O)[C@@H](NC(=O)[C@H](Cc1ccccc1)NC(=O)[C@@H](NC(=O)CNC(=O)[C@H](CCC(=O)O)NC(=O)CNC(=O)[C@@H](N)Cc1c[nH]cn1)[C@@H](C)O)[C@@H](C)O)C(C)C)[C@@H](C)CC)C(=O)N[C@@H](CCCNC(=N)N)C(=O)N[C@@H](Cc1ccc(O)cc1)C(=O)N[C@@H](CO)C(=O)O [Cmpd 5268] (H-HGEGTFTSDLSKQAEEEAVRLFIEWLKNGKPKK[Gly(octyl)]RYS-OH; N-terminus assumed)	–	–	−8	0.489	–	–
CCCCCCCC[C@H](NC(=O)[C@H](CCCCN)NC(=O)[C@H](CCCCN)NC(=O)[C@@H]1CCCN1C(=O)[C@H](CCCCN)NC(=O)CNC(=O)[C@H](CC(N)=O)NC(=O)[C@H](CCCCN)NC(=O)[C@H](CC(C)C)NC(=O)[C@H](Cc1ccccc1)NC(=O)[C@H](CCC(=O)O)NC(=O)[C@@H](NC(=O)[C@H](Cc1ccccc1)NC(=O)[C@H](CC(C)C)NC(=O)[C@H](CCCNC(=N)N)NC(=O)[C@@H](NC(=O)[C@H](C)NC(=O)[C@H](CCC(=O)O)NC(=O)[C@H](CCC(=O)O)NC(=O)[C@H](CCC(=O)O)NC(=O)[C@H](CC(C)C)NC(=O)[C@H](CCC(N)=O)NC(=O)[C@H](CCCCN)NC(=O)[C@H](CO)NC(=O)[C@H](CC(C)C)NC(=O)[C@H](CC(=O)O)NC(=O)[C@H](CO)NC(=O)[C@@H](NC(=O)[C@H](Cc1ccccc1)NC(=O)[C@@H](NC(=O)CNC(=O)[C@H](CCC(=O)O)NC(=O)CNC(=O)[C@@H](N)Cc1c[nH]cn1)[C@@H](C)O)[C@@H](C)O)C(C)C)[C@@H](C)CC)C(=O)N[C@@H](CCCNC(=N)N)C(=O)N[C@@H](Cc1ccc(O)cc1)C(=O)N[C@@H](CO)C(=O)O [Cmpd 5269]	–	–	−14	1.31	–	–
CC[C@H](C)[C@H](NC(=O)[C@H](Cc1ccccc1)NC(=O)[C@H](CC(C)C)NC(=O)[C@H](CCCNC(=N)N)NC(=O)[C@@H](NC(=O)[C@H](C)NC(=O)[C@H](CCC(=O)O)NC(=O)[C@H](CCC(=O)O)NC(=O)[C@H](CCC(=O)O)NC(=O)[C@H](CC(C)C)NC(=O)[C@H](Cc1ccc(O)cc1)NC(=O)[C@H](CCC(=O)O)NC(=O)[C@@H](NC(=O)[C@@H](NC(=O)[C@H](CC(=O)O)NC(=O)[C@H](CC(N)=O)NC(=O)[C@@H](NC(=O)[C@H](Cc1ccc(O)cc1)NC(=O)[C@@H](NC(=O)CNC(=O)[C@H](CCC(=O)O)NC(=O)CNC(=O)[C@@H](N)Cc1c[nH]cn1)[C@@H](C)O)[C@@H](C)O)C(C)C)[C@@H](C)O)C(C)C)C(=O)N[C@@H](CCC(=O)O)C(=O)N[C@@H](Cc1c[nH]c2ccccc12)C(=O)N[C@@H](CC(C)C)C(=O)N[C@@H](CCCCN)C(=O)N[C@@H](CC(N)=O)C(=O)NCC(=O)NCC(=O)N1CCC[C@H]1C(=O)N[C@@H](CO)C(=O)N[C@@H](CO)C(=O)NCC(=O)N[C@@H](C)C(=O)N1CCC[C@H]1C(=O)N1CCC[C@H]1C(=O)N1CCC[C@H]1C(=O)N[C@@H](CO)C(N)=O [Cmpd 5271]	increased plasma stability	–	−17	–	–	–
HGEGTFTSDLSKQLEEKAAKEFIEWLIQGGPSKEIIS-OH [Cmpd 5101]	increased plasma stability	increased plasma stability	−10	0.863	–	–
B1	–	–	–	–	1.29	5
B2	–	–	–	–	4.5	0.56
B3	–	–	–	–	0.21	0.31
B4	–	–	–	–	0.489	0.11

Source: patent US20100029554A1, “Composition and Methods for Treatment of Congestive Heart Failure” (Amylin Pharmaceuticals, Inc., priority 2006, published 2010)
